# In patent EP4737449A1 (Changchun Genescience Pharmaceutical Co., Ltd., priority 2023, dated 2025):
# Molecular target: T1, p53-Y220C mutant protein (Homo sapiens, UniProt P04637, Y220C)
# T1 construct: The recombinant Y220C p53 DBD protein with his-tag
# Experiment: In vitro DNA binding activity assay (TR-FRET)
# Assay type: biochemical
# Settings: concentration required to increase the binding activity of protein to DNA by 50%
# Method: The activity of the compound to modulate the binding of the p53-Y220C mutant protein to DNA was detected using TR-FREt (Time-Resolved Fluorescence Resonance Energy Transfer). The recombinant Y220C p53 DBD protein with his-tag and the DNA sequence with biotin label were prepared firstly. Donor Eu(Europium)-SA(Streptavidin) can be bound to the DNA sequence through biotin, receptor for his antibody attached to alphaphycocyanin(APC, allophycocyanin), and his antibody can be bound to the Y220C p53 DBD protein with his-tag. When exposed to an excitation light with a wavelength of 340 nm, the donor Eu(Europium)-SA(Streptavidin) can emit fluorescence with a wavelength of 615 nm. If the donor and the receptor are close to each other, the donor will transfer part of the energy to the receptor and produce fluorescence with a wavelength of 665 nm. […] If there is no interaction, only 615 nm fluorescence is produced. • 1) Experimental steps • a. Adding 4 µL of dilute compound solution to each well of a 384-well microplate; • a. Adding 4 µL of 4X P53 working solution to each well of the 384-well microplate; • c. Sealing the 384-well microplate and equilibrating the system at room temperature for 60 min; • d. Adding 4 µl of biotin DNA solution to the 384-well microplate; • e. Adding 4 µl of 4X test solution (MAb Anti-6His-Eu and streptavidin-d2) to each well of the 384-well microplate; • f. Incubating overnight in the dark; and • g. Reading data of 665 nm and 615 nm wavelengths on the BMG multifunctional microplate reader. • 2) Data analysis • a. Calculating the ratio for each well (Ratio665 nm/615 nm-Ratiobackground); • b. Calculating the activity percentage (%activity) as follows: C = (Ave_Ac−Ave_Ba)/(Ave_Dc−Ave_Bd) [formula] R data = (A−Ave_Ba−CD)/(D−Ave_Bd)*(Ave_Dc−Ave_Bd) [formula] % Activity = R data/Ave_VC*100 [formula] • A: Fluorescence intensity of the sample at 665 nm; D: Fluorescence intensity of the sample at 615 nm; • Ba: Background fluorescence intensity of the culture plate at 665 nm; Bd: Background fluorescence intensity of the culture plate at 615 nm; • Dc: Background fluorescence intensity of HIS-E at 615 nm; Ac: Background fluorescence intensity of streptavidin-d2 at 665 nm); and • c. Calculating SC150 and plotting dose-effect curve
# Compared to the absence of the compound of the present invention, the activation percentage of binding of the p53 mutant protein to DNA in the presence of the compound of the present invention is expressed as SC150, which indicates the concentration of the compound required to increase the DNA binding activity of the p53 mutant protein by 50%. The SC150 is calculated using Prism™.
row,SC150 [nM],Structure (SMILES)
1,16,"CN1CC[C@@H](Nc2cccc3c(CC(F)(F)F)c(C#CCNC(=O)c4cnn(C5CC5)c4)nn23)[C@@H](F)C1 [Compound 005, 1-cyclopropyl-N-[3-(7-{[(3S,4R)-3-fluoro-1-methylpiperidin-4-yl]amino}-3-(2,2,2-trifluoroethyl)pyrazolo[1,5-a]pyridin-2-yl)prop-2-yn-1-yl]-1H-pyrazole-4-carboxamide]"
2,11,"CN1CC[C@@H](Nc2cccc3c(CC(F)(F)F)c(C#CCNC(=O)c4cnn(C5CCC5)c4)nn23)[C@@H](F)C1 [Compound 006, 1-cyclobutyl-N-[3-(7-{[(3S,4R)-3-fluoro-1-methylpiperidin-4-yl]amino}-3-(2,2,2-trifluoroethyl)pyrazolo[1,5-a]pyridin-2-yl)prop-2-yn-1-yl]-1H-pyrazole-4-carboxamide]"
3,11,"CN1CC[C@@H](Nc2cccc3c(CC(F)(F)F)c(C#CCNC(=O)c4cnn(C5CCCC5)c4)nn23)[C@@H](F)C1 [Compound 007, 1-cyclopentyl-N-[3-(7-{[(3S,4R)-3-fluoro-1-methylpiperidin-4-yl]amino}-3-(2,2,2-trifluoroethyl)pyrazolo[1,5-a]pyridin-2-yl)prop-2-yn-1-yl]-1H-pyrazole-4-carboxamide]"
4,7,"CN1CC[C@@H](Nc2cccc3c(CC(F)(F)F)c(C#CCNC(=O)c4cnn(C5COC5)c4)nn23)[C@@H](F)C1 [Compound 009, N-[3-(7-{[(3S,4R)-3-fluoro-1-methylpiperidin-4-yl]amino}-3-(2,2,2-trifluoroethyl)pyrazolo[1,5-a]pyridin-2-yl)prop-2-yn-1-yl]-1-(oxetan-3-yl)-1H-pyrazole-4-carboxamide]"
5,9,"CN1CC[C@@H](Nc2cccc3c(CC(F)(F)F)c(C#CCNC(=O)c4cnn(C5(C)CC5)c4)nn23)[C@@H](F)C1 [Compound 010, N-[3-(7-{[(3S,4R)-3-fluoro-1-methylpiperidin-4-yl]amino}-3-(2,2,2-trifluoroethyl)pyrazolo[1,5-a]pyridin-2-yl)prop-2-yn-1-yl]-1-(1-methylcyclopropyl)-1H-pyrazole-4-carboxamide]"
6,58,"CN1CC[C@@H](Nc2cccc3c(CC(F)(F)F)c(C#CCNC(=O)c4cnn(C(F)(F)F)c4)nn23)[C@@H](F)C1 [Compound 024, N-[3-(7-{[(3S,4R)-3-fluoro-1-methylpiperidin-4-yl]amino}-3-(2,2,2-trifluoroethyl)pyrazolo[1,5-a]pyridin-2-yl)prop-2-yn-1-yl]-1-(trifluoromethyl)-1H-pyrazole-4-carboxamide]"
7,15,"CC(n1cc(C(=O)NCC#Cc2nn3c(N[C@@H]4CCN(C)C[C@@H]4F)cccc3c2CC(F)(F)F)cn1)C(F)(F)F (stereo partly drawn) [Compound 029, N-[3-(7-{[(3S,4R)-3-fluoro-1-methylpiperidin-4-yl]amino}-3-(2,2,2-trifluoroethyl)pyrazolo[1,5-a]pyridin-2-yl)prop-2-yn-1-yl]-1-(1,1,1-trifluoroprop-2-yl)-1H-pyrazole-4-carboxamide]"

# Second part, the molecule before the results:
row,Structure (SMILES),SC150 [nM]
1,"CN(C)C1CC[C@@H](Nc2cccc3c(CC(F)(F)F)c(C#CCNC(=O)c4cnn(C(C)(C)C)c4N)nn23)[C@@H](F)C1 (single isomer, unassigned) [Compound 358-B]",32
2,"CN1CCCC(Nc2cccc3c(CC(F)(F)F)c(C#CCNC(=O)c4cnn(C(C)(C)C)c4N)nn23)CC1 (single isomer, unassigned) [Compound 369-A, 5-amino-1-tert-butyl-N-(3-(7-[(1-methylazepan-4-yl)amino]-3-(2,2,2-trifluoroethyl)pyrazolo[1,5-a]pyridin-2-yl)prop-2-yn-1-yl)-1H-pyrazole-4-carboxamide]",8
3,"CN1CCCC(Nc2cccc3c(CC(F)(F)F)c(C#CCNC(=O)c4cnn(C(C)(C)C)c4N)nn23)CC1 (single isomer, unassigned) [Compound 369-B, 5-amino-1-tert-butyl-N-(3-(7-[(1-methylazepan-4-yl)amino]-3-(2,2,2-trifluoroethyl)pyrazolo[1,5-a]pyridin-2-yl)prop-2-yn-1-yl)-1H-pyrazole-4-carboxamide]",5
4,"CN1CCC(n2cc(C(=O)NCC#Cc3nn4c(N[C@@H]5CCN(C)C[C@@H]5F)cccc4c3CC(F)(F)F)cn2)CC1 [Compound 012, N-[3-(7-{[(3S,4R)-3-fluoro-1-methylpiperidin-4-yl]amino}-3-(2,2,2-trifluoroethyl)pyrazolo[1,5-a]pyridin-2-yl)prop-2-yn-1-yl]-1-(1-methylpiperidin-4-yl)-1H-pyrazole-4-carboxamide]",4
5,"CN1CC[C@@H](Nc2cccc3c(CC(F)(F)F)c(C#CCNC(=O)c4cnn(C5CCOCC5)c4)nn23)[C@@H](F)C1 [Compound 013, N-[3-(7-{[(3S,4R)-3-fluoro-1-methylpiperidin-4-yl]amino}-3-(2,2,2-trifluoroethyl)pyrazolo[1,5-a]pyridin-2-yl)prop-2-yn-1-yl]-1-((tetrahydro-2H-pyran-4-yl))-1H-pyrazole-4-carboxamide]",7
6,CN1CC[C@@H](Nc2cccc3c(CC(F)(F)F)c(C#CCNC(=O)c4cnn(C5(C)CCOCC5)c4)nn23)[C@@H](F)C1 [Compound 014],13
7,"CN1CC[C@@H](Nc2cccc3c(CC(F)(F)F)c(C#CCNC(=O)c4cnn(-c5ccccc5)c4)nn23)[C@@H](F)C1 [Compound 015, N-[3-(7-{[(3S,4R)-3-fluoro-l-methylpiperidin-4-yl]amino}-3-(2,2,2-trifluoroethyl)pyrazolo[1,5-a]pyridin-2-yl)prop-2-yn-1-yl]-1-phenyl-1H-pyrazole-4-carboxamide]",62
8,"COCC(C)(C)n1cc(C(=O)NCC#Cc2nn3c(N[C@@H]4CCN(C)C[C@@H]4F)cccc3c2CC(F)(F)F)cn1 [Compound 022, N-[3-(7-{[(3S,4R)-3-fluoro-1-methylpiperidin-4-yl]amino}-3-(2,2,2-trifluoroethyl)pyrazolo[1,5-a]pyridin-2-yl)prop-2-yn-1-yl]-1-(1-methoxy-2-methylpropan-2-yl)-1H-pyrazole-4-carboxamide]",8
9,CN1CC[C@@H](Nc2cccc3c(CC(F)(F)F)c(C#CCNC(=O)c4cnn(CC(F)(F)F)c4)nn23)[C@@H](F)C1 [Compound 030],18
10,COc1nn(C(C)(C)C)cc1C(=O)NCC#Cc1nn2c(N[C@@H]3CCN(C)C[C@@H]3F)cccc2c1CC(F)(F)F [Compound 043],86
11,"COc1cccc(C(=O)NCC#Cc2nn3c(N[C@@H]4CCN(C)C[C@@H]4F)cccc3c2CC(F)(F)F)c1 [Compound 072, N-[3-(7-{[(3S,4R)-3-fluoro-1-methylpiperidin-4-yl]amino}-3-(2,2,2-trifluoroethyl)pyrazolo[1,5-a]pyridin-2-yl)prop-2-yn-1-yl]-3-methoxybenzamide]",41
12,"CN1CC[C@@H](Nc2cccc3c(CC(F)(F)F)c(C#CCNC(=O)c4ccccn4)nn23)[C@@H](F)C1 [Compound 075, N-[3-(7-{[(3S,4R)-3-fluoro-1-methylpiperidin-4-yl]amino}-3-(2,2,2-trifluoroethyl)pyrazolo[1,5-a]pyridin-2-yl)prop-2-yn-1-yl]pyridine-2-carboxamide]",95
13,"CN1CC[C@@H](Nc2cccc3c(CC(F)(F)F)c(C#CCNC(=O)c4ccc(F)cc4)nn23)[C@@H](F)C1 [Compound 076, 4-fluoro-N-[3-(7-{[(3S,4R)-3-fluoro-1-methylpiperidin-4-yl]amino}-3-(2,2,2-trifluoroethyl)pyrazolo[1,5-a]pyridin-2-yl)prop-2-yn-1-yl]benzamide]",75
